Results as given in ChEMBL document CHEMBL4219032, “Triple Reuptake Inhibitors as Potential Therapeutics for Depression and Other Disorders: Design Paradigm and Developmental Challenges” (J Med Chem, 2018).

What was measured:
[1] = target: T1, Sodium-dependent noradrenaline transporter (Homo sapiens, UniProt P23975)
Description: Binding affinity to NET (unknown origin)

[2] = target: T2, Sodium-dependent dopamine transporter (Homo sapiens, UniProt Q01959)
Description: Binding affinity to DAT (unknown origin)

[3] = target: T3, Sodium-dependent serotonin transporter (Homo sapiens, UniProt P31645)
Description: Binding affinity to SERT (unknown origin)

[4] = target: T2, Sodium-dependent dopamine transporter; assay: Binding affinity to human DAT expressed in HEK293 cells after 60 mins in presence of […] by liquid scintillation counting; assay type: cell-based
[5] = target: T1, Sodium-dependent noradrenaline transporter; assay: Binding affinity to human NET expressed in HEK293 cells after 60 mins in presence of [3H]imipramine by liquid scintillation counting; assay type: cell-based
[6] = target: T3, Sodium-dependent serotonin transporter; assay: biochemical; assay type: cell-based, HEK293
Description: Binding affinity to human SERT expressed in HEK293 cells after 60 mins in presence of [3H]imipramine by liquid scintillation counting

[7] = target: T2, Sodium-dependent dopamine transporter; assay: Inhibition of DAT (unknown origin)-mediated uptake
[8] = target: T3, Sodium-dependent serotonin transporter; assay: Inhibition of SERT (unknown origin)-mediated uptake
[9] = target: T1, Sodium-dependent noradrenaline transporter; assay: Binding affinity to human NET
[10] = target: T2, Sodium-dependent dopamine transporter; assay: Binding affinity to human DAT
[11] = target: T3, Sodium-dependent serotonin transporter; assay: Binding affinity to human SERT
[12] = target: Sodium-dependent serotonin transporter (Rattus norvegicus, UniProt P31652); assay: Inhibition of rat brain SERT assessed as reduction of [3H]5-HT re-uptake preincubated for 30 mins followed by [3H]5-HT addition measured after 5 mins by scintillation counting
[13] = target: Sodium-dependent dopamine transporter (Rattus norvegicus, UniProt P23977); assay: Inhibition of rat brain DAT assessed as reduction of [3H]-DA re-uptake preincubated for 30 mins followed by [3H]-DA addition measured after 5 mins by scintillation counting
[14] = target: Norepinephrine transporter (Rattus norvegicus, UniProt Q9WTR4); assay: Inhibition of rat brain NET assessed as reduction of [3H]-NE re-uptake preincubated for 30 mins followed by [3H]-NE addition measured after 5 mins by scintillation counting
Homo sapiens [15] = assay: In vivo receptor occupancy at DAT in iv dosed human measured up to 15 mins by PET analysis; assay type: functional
[16] = Half life in human brain; assay type: ADME, tissue-based
[17] = Ratio of drug level in human brain to plasma at 30 mg administered qd for 3 days followed by 60 mg administration at qd for next 11 days measured on day 14 post last dose by LC-MS/MS analysis; assay type: ADME; conditions: read-out: BPR
[18] = Tmax in human plasma at 30 mg administered qd for 3 days followed by 60 mg administration at qd for next 11 days measured on day 14 post last dose by LC-MS/MS analysis; assay type: ADME, organism-based
[19] = Half life in human cerebrospinal fluid at 30 mg administered qd for 3 days followed by 60 mg administration at qd for next 11 days measured on day 14 post last dose by LC-MS/MS analysis; assay type: ADME, tissue-based
Rattus norvegicus [20] = assay: In vivo receptor occupancy at NET in ip dosed rat brain measured 60 mins post dose; assay type: functional; conditions: 1 h
Rattus norvegicus [21] = assay: In vivo receptor occupancy at DAT in ip dosed rat brain measured 60 mins post dose; assay type: functional; conditions: 1 h
Rattus norvegicus [22] = assay: In vivo receptor occupancy at SERT in ip dosed rat brain measured 60 mins post dose; assay type: functional; conditions: 1 h
[23] = Half life in human at 4 to 8 mg; assay type: ADME, organism-based; conditions: in vivo
[24] = Elimination half life in human at 8 to 36 mg by LC-MS/MS analysis; assay type: ADME, organism-based; conditions: in vivo, read-out: beta t1/2
Homo sapiens [25] = assay: In vivo receptor occupancy at SERT in human at 8 to 16 mg after 24 hrs post dose by [11C]-DASB based PET imaging analysis; assay type: functional
Homo sapiens [26] = assay: In vivo receptor occupancy at DAT in human at 8 to 16 mg measured 24 hrs post dose by [11C]-PE2I based PET imaging analysis; assay type: functional
[27] = Tmax in human at 8 to 36 mg by LC-MS/MS analysis; assay type: ADME, organism-based; conditions: in vivo
[28] = target: T1, Sodium-dependent noradrenaline transporter; assay: Inhibition of human NET expressed in HEK cells assessed as reduction of [3H]-NE uptake preincubated for 10 mins followed by […] measured after 10 mins by scintillation counting method; assay type: cell-based
[29] = target: T2, Sodium-dependent dopamine transporter; assay: Inhibition of human DAT expressed in HEK cells assessed as reduction of [3H]-DA uptake preincubated for 10 mins followed by […] measured after 10 mins by scintillation counting method; assay type: cell-based
[30] = target: T3, Sodium-dependent serotonin transporter; assay: Inhibition of human SERT expressed in HEK cells assessed as reduction of [3H]5-HT uptake preincubated for 10 mins followed by [3H]5-HT addition measured after 10 mins by scintillation counting method; assay type: cell-based
Homo sapiens [31] = assay: In vivo receptor occupancy at SERT in human at 2 mg/day by PET imaging method; assay type: functional
Homo sapiens [32] = assay: In vivo receptor occupancy at SERT in human at 1 mg/day by PET imaging method; assay type: functional
Homo sapiens [33] = assay: In vivo receptor occupancy at DAT in human at 2 mg/day by PET imaging method; assay type: functional
Homo sapiens [34] = assay: In vivo receptor occupancy at DAT in human at 1 mg/day by PET imaging method; assay type: functional

T3 sequence (P31645 whole entry): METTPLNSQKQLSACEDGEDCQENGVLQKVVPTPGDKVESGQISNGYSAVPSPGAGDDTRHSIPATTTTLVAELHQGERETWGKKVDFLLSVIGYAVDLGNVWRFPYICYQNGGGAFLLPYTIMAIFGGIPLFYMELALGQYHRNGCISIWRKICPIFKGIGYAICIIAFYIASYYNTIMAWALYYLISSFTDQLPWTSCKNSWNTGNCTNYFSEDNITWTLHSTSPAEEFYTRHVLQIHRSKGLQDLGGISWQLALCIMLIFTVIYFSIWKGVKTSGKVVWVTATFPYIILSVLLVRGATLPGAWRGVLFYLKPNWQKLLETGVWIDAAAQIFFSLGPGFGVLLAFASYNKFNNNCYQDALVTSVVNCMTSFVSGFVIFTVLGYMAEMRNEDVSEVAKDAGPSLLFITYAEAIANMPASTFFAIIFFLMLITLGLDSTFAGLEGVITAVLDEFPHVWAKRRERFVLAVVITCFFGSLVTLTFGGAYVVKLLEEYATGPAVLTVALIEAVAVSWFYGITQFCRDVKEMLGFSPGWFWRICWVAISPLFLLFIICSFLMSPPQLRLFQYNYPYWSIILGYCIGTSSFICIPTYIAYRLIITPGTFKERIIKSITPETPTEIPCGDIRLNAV
T1 sequence (P23975 whole entry): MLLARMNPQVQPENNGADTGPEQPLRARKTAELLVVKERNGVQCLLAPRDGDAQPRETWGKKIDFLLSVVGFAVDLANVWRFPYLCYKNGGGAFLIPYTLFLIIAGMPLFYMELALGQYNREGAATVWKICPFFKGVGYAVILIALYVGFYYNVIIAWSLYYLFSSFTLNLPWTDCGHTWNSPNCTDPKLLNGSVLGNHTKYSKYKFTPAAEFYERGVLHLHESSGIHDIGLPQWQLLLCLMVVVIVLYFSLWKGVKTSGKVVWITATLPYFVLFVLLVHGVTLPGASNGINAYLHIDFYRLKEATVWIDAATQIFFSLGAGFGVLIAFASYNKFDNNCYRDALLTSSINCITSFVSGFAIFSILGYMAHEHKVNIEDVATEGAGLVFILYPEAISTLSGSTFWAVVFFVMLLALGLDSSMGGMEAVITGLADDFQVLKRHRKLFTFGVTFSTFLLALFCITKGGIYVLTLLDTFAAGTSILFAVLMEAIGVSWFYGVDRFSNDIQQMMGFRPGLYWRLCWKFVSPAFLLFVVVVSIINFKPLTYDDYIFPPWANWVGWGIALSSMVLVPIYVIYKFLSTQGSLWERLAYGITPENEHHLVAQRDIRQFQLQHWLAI
T2 sequence (Q01959 whole entry): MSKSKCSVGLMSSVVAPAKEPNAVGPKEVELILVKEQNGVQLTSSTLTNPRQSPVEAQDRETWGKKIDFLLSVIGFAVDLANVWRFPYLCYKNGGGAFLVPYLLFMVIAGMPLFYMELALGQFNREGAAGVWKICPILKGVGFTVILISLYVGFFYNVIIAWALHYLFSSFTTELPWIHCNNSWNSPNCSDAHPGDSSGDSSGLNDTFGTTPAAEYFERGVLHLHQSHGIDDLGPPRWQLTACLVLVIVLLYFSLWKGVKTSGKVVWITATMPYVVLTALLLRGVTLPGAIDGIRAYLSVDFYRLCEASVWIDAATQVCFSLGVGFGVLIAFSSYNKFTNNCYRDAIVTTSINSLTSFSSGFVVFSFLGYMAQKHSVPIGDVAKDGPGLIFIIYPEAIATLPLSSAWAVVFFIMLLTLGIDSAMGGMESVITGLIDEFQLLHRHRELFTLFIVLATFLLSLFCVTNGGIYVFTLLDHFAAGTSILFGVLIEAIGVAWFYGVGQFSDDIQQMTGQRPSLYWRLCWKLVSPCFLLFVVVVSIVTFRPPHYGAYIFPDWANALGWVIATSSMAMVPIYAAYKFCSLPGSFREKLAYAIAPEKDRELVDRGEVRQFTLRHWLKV
Chain of Norepinephrine transporter (Q9WTR4 whole entry): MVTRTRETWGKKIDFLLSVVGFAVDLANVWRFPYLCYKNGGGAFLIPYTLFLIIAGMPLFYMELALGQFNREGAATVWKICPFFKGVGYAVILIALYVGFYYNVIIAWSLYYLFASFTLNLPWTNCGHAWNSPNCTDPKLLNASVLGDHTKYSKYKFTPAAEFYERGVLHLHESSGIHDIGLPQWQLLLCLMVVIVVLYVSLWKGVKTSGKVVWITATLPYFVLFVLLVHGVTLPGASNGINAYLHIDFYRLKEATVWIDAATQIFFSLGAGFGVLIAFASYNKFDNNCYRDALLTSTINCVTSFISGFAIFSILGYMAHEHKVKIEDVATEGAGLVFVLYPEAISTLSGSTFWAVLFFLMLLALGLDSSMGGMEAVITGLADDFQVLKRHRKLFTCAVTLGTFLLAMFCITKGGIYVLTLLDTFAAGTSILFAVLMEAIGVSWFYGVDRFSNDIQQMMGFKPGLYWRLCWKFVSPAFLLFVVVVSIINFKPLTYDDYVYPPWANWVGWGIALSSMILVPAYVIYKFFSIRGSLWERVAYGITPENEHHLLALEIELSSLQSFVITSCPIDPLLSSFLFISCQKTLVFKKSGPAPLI
Chain of Sodium-dependent dopamine transporter (Rattus norvegicus, UniProt P23977) (P23977 whole entry): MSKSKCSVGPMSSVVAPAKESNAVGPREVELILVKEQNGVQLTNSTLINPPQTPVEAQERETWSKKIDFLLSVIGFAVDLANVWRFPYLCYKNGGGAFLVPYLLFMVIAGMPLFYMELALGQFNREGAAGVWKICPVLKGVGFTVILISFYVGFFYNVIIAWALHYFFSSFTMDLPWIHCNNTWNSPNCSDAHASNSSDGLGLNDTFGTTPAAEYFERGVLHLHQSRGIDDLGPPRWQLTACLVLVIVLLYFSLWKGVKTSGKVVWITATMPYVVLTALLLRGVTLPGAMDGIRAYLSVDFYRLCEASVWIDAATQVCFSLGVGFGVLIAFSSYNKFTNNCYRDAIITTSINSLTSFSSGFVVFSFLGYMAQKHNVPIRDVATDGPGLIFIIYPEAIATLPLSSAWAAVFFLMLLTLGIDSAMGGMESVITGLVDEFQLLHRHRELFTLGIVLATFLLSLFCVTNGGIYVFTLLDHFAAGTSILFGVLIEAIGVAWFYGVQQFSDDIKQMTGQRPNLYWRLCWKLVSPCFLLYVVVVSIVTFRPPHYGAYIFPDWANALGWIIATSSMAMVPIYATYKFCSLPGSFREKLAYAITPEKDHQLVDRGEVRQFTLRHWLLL
Chain of Sodium-dependent serotonin transporter (Rattus norvegicus, UniProt P31652) (P31652 whole entry): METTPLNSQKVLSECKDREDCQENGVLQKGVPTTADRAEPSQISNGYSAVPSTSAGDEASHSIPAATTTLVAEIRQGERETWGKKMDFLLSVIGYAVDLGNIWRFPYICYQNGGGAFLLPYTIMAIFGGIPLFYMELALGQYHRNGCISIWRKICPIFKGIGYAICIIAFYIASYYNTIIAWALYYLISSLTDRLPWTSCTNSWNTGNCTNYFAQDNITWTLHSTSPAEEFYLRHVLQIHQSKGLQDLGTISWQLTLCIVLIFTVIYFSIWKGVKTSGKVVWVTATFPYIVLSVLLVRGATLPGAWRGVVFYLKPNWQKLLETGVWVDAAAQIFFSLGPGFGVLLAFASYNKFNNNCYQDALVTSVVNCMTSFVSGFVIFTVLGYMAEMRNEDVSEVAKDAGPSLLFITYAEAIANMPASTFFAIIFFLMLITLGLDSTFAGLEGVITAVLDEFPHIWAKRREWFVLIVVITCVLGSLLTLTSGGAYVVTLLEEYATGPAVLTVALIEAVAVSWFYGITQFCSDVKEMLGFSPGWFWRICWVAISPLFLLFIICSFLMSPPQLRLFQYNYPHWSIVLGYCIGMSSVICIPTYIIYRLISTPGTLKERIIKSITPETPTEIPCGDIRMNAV

Cc1ccc(C23CNCC2C3)cc1 (stereo not drawn) [BICIFADINE]
IC50 [1]: 55 nM | IC50 [2]: 910 nM | IC50 [3]: 117 nM

CNC[C@H](c1ccc2ccccc2c1)[C@H](O)c1ccccc1 (racemic)
Ki [4]: 43 nM | Ki [5]: 1.2 nM | Ki [6]: 12 nM

C[C@]1(O)CC[C@](CN)(c2ccc(Cl)c(Cl)c2)CC1
IC50 [7]: 518 nM | IC50 [8]: 1190 nM

Clc1ccc([C@@H]2CCNC[C@@]23CCOC3)cc1Cl
Ki [9]: 79.4 nM | Ki [10]: 39.8 nM | Ki [11]: 5.01 nM

COC[C@@H]1CN[C@H]2CC[C@]1(c1ccc(Cl)c(Cl)c1)C2
Ki [9]: 1.41 nM | Ki [10]: 5.75 nM | Ki [11]: 2.09 nM

CN1Cc2c(N)cccc2C(c2ccc(Cl)c(Cl)c2)C1 (stereo not drawn)
Ki [1]: 8.8 nM | Ki [2]: 10.9 nM | Ki [3]: 10.3 nM

CNC[C@@H](c1ccc2ccccc2c1)[C@@H](O)c1ccccc1
Kd [4]: 200 nM | Kd [5]: 42 nM | Kd [6]: 210 nM

CC1CCCN(C(=O)CSC[C@H]2CN(C)CC[C@@H]2c2ccc(Cl)cc2)C1 (stereo partly drawn)
IC50 [12]: 15 nM | IC50 [13]: 120 nM | IC50 [14]: 84 nM

Clc1ccc(C2CCNCC23CCOCC3)cc1Cl (stereo in doubt; 171)
Ki [9]: 63.1 nM | Ki [10]: 31.6 nM | Ki [11]: 1.26 nM

CC(NC(C)(C)C)C(=O)c1cccc(Cl)c1 (stereo not drawn) [BUPROPION]
Occ (Homo sapiens [15]): <30%

Clc1ccc(C2CCNCC23COC3)cc1Cl (stereo not drawn)
Ki [9]: 158 nM | Ki [10]: 158 nM | Ki [11]: 63.1 nM

COC[C@@H]1CN[C@@H]2CC[C@@]1(c1ccc(Cl)c(Cl)c1)C2
Ki [9]: 6.31 nM | Ki [10]: 79.4 nM | Ki [11]: 31.6 nM

COC(=O)[C@H]1[C@@H](OC(=O)c2ccccc2)C[C@@H]2CC[C@H]1N2C [COCAINE]
half-life [16]: 0.333 h

Clc1ccc(C2CCNCC23CCOCC3)cc1Cl (stereo in doubt; 172)
Ki [9]: 3.98 nM | Ki [10]: 12.6 nM | Ki [11]: 0.316 nM

COC(=O)[C@H](c1ccccc1)[C@H]1CCCCN1 (racemic) [DEXMETHYLPHENIDATE]
half-life [16]: 1.5 h | Occ (Homo sapiens [15]): 60%

CN(C)C[C@]1(c2ccc(Cl)c(Cl)c2)CC[C@@](C)(O)CC1
Kp at 14 day [17]: 0.22 | Tmax [18]: 4 h | IC50 [2]: 41 nM | IC50 [7]: 41 nM | IC50 [3]: 34 nM | half-life [19]: 18 h | IC50 [8]: 34 nM

Clc1ccc([C@]23CNCC2C3)cc1Cl (stereo partly drawn)
ED50 (Rattus norvegicus [20]): 2 mg/kg | ED50 (Rattus norvegicus [21]): 49 mg/kg | ED50 (Rattus norvegicus [22]): 0.5 mg/kg

C#Cc1ccc([C@H]2CN3CCC[C@H]3c3ccccc32)cc1
Ki [1]: 227 nM | Ki [2]: 74.3 nM | Ki [3]: 15.8 nM

Clc1ccc([C@@H]2CCN[C@@H]3CCOC[C@@H]32)cc1Cl
Ki [9]: 50.1 nM | Ki [10]: 39.8 nM | Ki [11]: 31.6 nM

COC[C@H]1CN[C@H]2CC[C@]1(c1ccc(Cl)c(Cl)c1)C2
Ki [9]: 0.0794 nM | Ki [10]: 1.51 nM | Ki [11]: 1.26 nM

COC[C@@]12CNCC[C@]1(c1ccc(Cl)c(Cl)c1)C2 [GSK1360707]
IC50 [1]: 8.1 nM | IC50 [2]: 8 nM | IC50 [3]: 9.2 nM

CNC[C@H](c1ccc2ccccc2c1)[C@H](O)c1ccccc1
Ki [4]: 61 nM | Ki [5]: 1.5 nM | Ki [6]: 2.1 nM

C#Cc1ccc([C@@H]2CN3CCC[C@@H]3c3ccccc32)cc1
Ki [1]: 4.1 nM | Ki [2]: 1.6 nM | Ki [3]: 0.27 nM

N[C@H]1CC[C@H](c2ccc(Cl)c(Cl)c2)c2ccccc21
half-life [23]: 47 h | half-life [24]: 44 to 77 h | IC50 [1]: 4 nM | IC50 [2]: 2 nM | Occ (Homo sapiens [25]): 2 - 14% | Occ (Homo sapiens [26]): 33 - 49% | Tmax [27]: 10 to 12 h

C[C@]1(O)CC[C@@](CN)(c2ccc(Cl)c(Cl)c2)CC1
IC50 [7]: 2600 nM | IC50 [8]: > 10000 nM

c1ccc2cc([C@]34CNCC3C4)ccc2c1 (stereo partly drawn)
IC50 [28]: 6 nM | IC50 [29]: 38 nM | IC50 [30]: 84 nM

Clc1ccc(C2CCNCC23CCOCC3)cc1Cl (racemic)
Ki [9]: 10 nM | Ki [10]: 20 nM | Ki [11]: 0.631 nM

CN(C)C[C@H](c1ccc2ccccc2c1)[C@H](O)C1CCCCC1 (racemic)
Ki [4]: 53 nM | Ki [5]: 10 nM | Ki [6]: 6 nM

COC[C@H]1[C@@H](c2ccc(Cl)c(Cl)c2)C[C@@H]2CC[C@H]1N2C
Occ (Homo sapiens [31]): 75% | IC50 [1]: 2 nM | IC50 [2]: 10 nM | Occ (Homo sapiens [32]): 55% | IC50 [3]: 10 nM | Occ (Homo sapiens [33]): 80% | Occ (Homo sapiens [34]): 60%

CN(C)C[C@]1(c2ccc3ccccc3c2)CC[C@](C)(O)CC1
IC50 [7]: 167 nM | IC50 [8]: 7 nM

COC[C@H]1CN[C@@H]2CC[C@@]1(c1ccc(Cl)c(Cl)c1)C2
Ki [9]: 3.16 nM | Ki [10]: 5.01 nM | Ki [11]: 10 nM

COC(=O)[C@H]1CN(C)CC[C@@H]1c1ccc(Cl)cc1
IC50 [12]: 8490 nM | IC50 [13]: 233 nM | IC50 [14]: 252 nM

CNC[C@]1(c2ccc(Cl)c(Cl)c2)CC[C@](C)(O)CC1
Kp at 14 day [17]: 0.46 | Tmax [18]: 6 h | IC50 [7]: 71 nM | half-life [19]: 32 h | IC50 [8]: 210 nM

Cc1cc2cc(OC3C[C@H]4CC[C@@H](C3)N4)ccc2oc1=O (stereo partly drawn)
IC50 [1]: 10 nM | IC50 [2]: 150 nM | IC50 [3]: 0.72 nM
